The record followed here is US6500853B1, “Inhibitors of phospholipase enzymes” (Genetics Institute, LLC, priority 1998, dated 2002).

The target of one test is T1, cPLA2 (Homo sapiens, UniProt P47712).
T1 sequence (P47712 1-749): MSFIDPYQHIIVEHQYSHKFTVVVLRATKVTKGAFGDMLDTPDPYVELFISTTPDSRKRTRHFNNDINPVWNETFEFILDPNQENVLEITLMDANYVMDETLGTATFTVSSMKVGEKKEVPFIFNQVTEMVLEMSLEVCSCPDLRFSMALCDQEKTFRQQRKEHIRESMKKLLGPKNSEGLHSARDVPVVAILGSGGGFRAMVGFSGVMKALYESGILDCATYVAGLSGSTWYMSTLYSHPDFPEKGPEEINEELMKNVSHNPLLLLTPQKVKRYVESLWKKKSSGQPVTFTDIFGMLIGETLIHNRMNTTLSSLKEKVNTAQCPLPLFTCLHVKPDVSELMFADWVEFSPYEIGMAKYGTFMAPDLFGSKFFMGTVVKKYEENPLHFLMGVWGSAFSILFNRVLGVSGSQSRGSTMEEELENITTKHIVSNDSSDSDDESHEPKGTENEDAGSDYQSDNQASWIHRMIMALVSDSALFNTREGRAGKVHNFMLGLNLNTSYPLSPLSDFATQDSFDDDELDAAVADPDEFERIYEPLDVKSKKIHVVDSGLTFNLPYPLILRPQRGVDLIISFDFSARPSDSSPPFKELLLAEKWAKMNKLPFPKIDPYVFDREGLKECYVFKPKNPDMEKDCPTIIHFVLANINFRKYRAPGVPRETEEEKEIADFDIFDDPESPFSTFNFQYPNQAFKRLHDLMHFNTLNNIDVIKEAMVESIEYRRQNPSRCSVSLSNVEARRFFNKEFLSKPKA
Put plainly: Coumarin Assay (cPLA2 inhibition). Type of test: biochemical. The essentials:
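Percent inhibition at the stated concentration, from the rate of 460 nm emission rise (360 nm excitation) per minute. Reaction started by adding 4 μg enzyme to compound and 60 μM 7-hydroxycoumarinyl 6-heptenoate in Hepes buffer pH 7.5 with 1 mM EDTA.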

Test [1] has as its system Rat Carrageenan-Induced Footpad Edema. Kind of test: Rat Carrageenan-Induced Footpad Edema Test. It counts as in vivo, male Sprague Dawley rats. The settings on record: footpad volume 3 hours after carrageenan; for inhibition in vivo at 2 mg/kg / inhibition in vivo at 10 mg/kg / inhibition in vivo at 5 mg/kg: Rattus norvegicus, 3 h, read-out: PERCENT INHIBITION; for inhibition in vivo at 2 mg/kg / inhibition in vivo at 10 mg/kg: po; for inhibition in vivo at 5 mg/kg: iv.

Setting [2] is: CONCENTRATION 100 micromolar, read-out: PERCENT INHIBITION @.
The mark [3] stands for this setting: CONCENTRATION 2.5 micromolar, read-out: PERCENT INHIBITION @.

Take `O=C(O)c1cn(C(c2ccccc2)c2ccccc2)c2ccc(NC(=O)C3CCCC3)cc12` [Example 114, 1-benzhydryl-5-[(cyclopentylcarbonyl)amino]-1H-indole-3-carboxylic acid]: the inhibition at 100 µM at cPLA2 (setting [2]) was determined as 45%. In addition, the inhibition at 152 µM on cPLA2 (CONCENTRATION 152 micromolar, read-out: PERCENT INHIBITION @) came to 50%. Besides, the inhibition at 170 µM at cPLA2 (CONCENTRATION 170 micromolar, read-out: PERCENT INHIBITION @) was 50%. Further, in test [1] (PO, 2 mg/Kg), the inhibition in vivo at 2 mg/kg is 12.2%. In test [1] (PO, 10 mg/Kg), the inhibition in vivo at 10 mg/kg amounted to 22.2%.

As to `O=C(Nc1ccc2c(c1)c(CNC(CO)C(=O)O)cn2C(c1ccccc1)c1ccccc1)C1CCCC1` (centres unmarked) [Example 68, 2-[({1-benzhydryl-5-[(cyclopentylcarbonyl)amino]-1H-indol-3-yl}methyl)amino]-3-hydroxypropanoic acid], the inhibition at 100 µM on cPLA2 (setting [2]) was found to be 9%. For the same compound, at cPLA2 (CONCENTRATION 400 micromolar, read-out: PERCENT INHIBITION @), the inhibition at 400 µM came out at 18%. In addition, in test [1] (IV, 5 mg/Kg), the inhibition in vivo at 5 mg/kg was -4.3%.

Consider “4-[(1-benzhydryl-5-nitro-1H-indol-3-yl)methyl]3-methoxybenzoic acid [Example 12]”, for which the “PERCENT INHIBITION @” value at cPLA2 (CONCENTRATION 0.35 micromolar), at cPLA2 (CONCENTRATION 0.38 micromolar), at cPLA2 (CONCENTRATION 0.39 micromolar), at cPLA2 (CONCENTRATION 0.4 micromolar), at cPLA2 (CONCENTRATION 0.44 micromolar) and at cPLA2 (CONCENTRATION 0.45 micromolar) was 50% throughout. The “PERCENT INHIBITION @” value stood at 64% at cPLA2 (CONCENTRATION 0.5 micromolar) and 86% on cPLA2 (CONCENTRATION 1.25 micromolar). The “PERCENT INHIBITION” value in test [1] (PO, 2 mg/Kg) is recorded as 0.19%; in test [1] (PO, 10 mg/Kg), −0.38%.

For `COc1cc(C(=O)NS(C)(=O)=O)ccc1Cc1cn(C(c2ccccc2)c2ccccc2)c2ccc(NC(=O)OC3CCCC3)cc12` [Example 27, cyclopentyl N-[1-benzhydryl-3-(2-methoxy-4-{[(methylsulfonyl)amino]carbonyl}benzyl)-1H-indol-5-yl]carbamate], the inhibition at 6 µM on cPLA2 (CONCENTRATION 6 micromolar, read-out: PERCENT INHIBITION @) is 50%. Besides, on cPLA2 (CONCENTRATION 6.4 micromolar, read-out: PERCENT INHIBITION @), the inhibition at 6.4 µM was determined as 50%. Moreover, the inhibition in vivo at 5 mg/kg in test [1] (IV, 5 mg/Kg) amounted to 6.48%.

Take “4-({5-[(cyclopentylcarbonyl)amino]-1-[phenyl(2-pyridinyl)methyl]-1H-indol-3-yl}methyl)-3-methoxybenzoic acid [Example 44]”: the “PERCENT INHIBITION @” value at cPLA2 (CONCENTRATION 1.65 micromolar) was 50%; at cPLA2 (CONCENTRATION 1.7 micromolar), 50%; on cPLA2 (CONCENTRATION 1.75 micromolar) it was 50%; on cPLA2 (CONCENTRATION 1.9 micromolar), 50%; at cPLA2 (CONCENTRATION 2.1 micromolar) it was 50%; on cPLA2 (CONCENTRATION 2.5 micromolar), 71%. The “PERCENT INHIBITION @” value at cPLA2 (CONCENTRATION 6.25 micromolar) is given as 97%. The “PERCENT INHIBITION” value in test [1] (IV, 5 mg/Kg) turned out to be 11.9%.

In the case of `COc1cc(C(=O)NS(=O)(=O)C(F)(F)F)ccc1Cc1cn(C(c2ccccc2)c2ccccc2)c2ccc(NC(=O)OC3CCCC3)cc12` [Example 26, Cyclopentyl N-{1-benzhydryl-3-[2-methoxy-4-({[(trifluoromethyl)sulfonyl]amino}carbonyl)benzyl]-1H-indol-5-yl}carbamate], the inhibition at 2.4 µM on cPLA2 (CONCENTRATION 2.4 micromolar, read-out: PERCENT INHIBITION @) came to 50%. For the same compound, on cPLA2 (setting [3]), the inhibition at 2.5 µM turned out to be 50%. The inhibition in vivo at 5 mg/kg in test [1] (IV, 5 mg/Kg) was 25.3%.

Take `COc1cc(C(=O)NS(=O)(=O)C(F)(F)F)ccc1Cc1cn(C(c2ccccc2)c2ccccc2)c2ccc(NC(=O)c3ccsc3)cc12` [Example 46, N-{1-benzhydryl-3-[2-methoxy-4-({[(trifluoromethyl)sulfonyl]amino}carbonyl)benzyl]-1H-indol-5-yl}-3-thiophenecarboxamide]: the inhibition at 2.2 µM on cPLA2 (CONCENTRATION 2.2 micromolar, read-out: PERCENT INHIBITION @) amounted to 50%. For the same compound, the inhibition at 2.5 µM at cPLA2 (setting [3]) came out at 67%. Further, the inhibition at 2.7 µM on cPLA2 (CONCENTRATION 2.7 micromolar, read-out: PERCENT INHIBITION @) worked out at 50%. Moreover, the inhibition at 3.5 µM on cPLA2 (CONCENTRATION 3.5 micromolar, read-out: PERCENT INHIBITION @) amounted to 50%. In addition, the inhibition at 4.5 µM on cPLA2 (CONCENTRATION 4.5 micromolar, read-out: PERCENT INHIBITION @) amounted to 50%. In addition, the inhibition in vivo at 5 mg/kg in test [1] (IV, 5 mg/Kg) worked out at 4.58%.

On to `O=C(O)C(=O)c1cn(C(c2ccccc2)c2ccccc2)c2ccc(NC(=O)C3CCCC3)cc12` [Example 115], for which the “PERCENT INHIBITION @” value at cPLA2 (CONCENTRATION 50 micromolar) is 89%; on cPLA2 (CONCENTRATION 100 micromolar), 20%; on cPLA2 (CONCENTRATION 250 micromolar), 50%. Further, the “PERCENT INHIBITION” value in test [1] (PO, 2 mg/Kg) was determined as 1.24%; in test [1] (PO, 10 mg/Kg) it was 18.46%.

As to `O=C(O)/C=C/c1cn(C(c2ccccc2)c2ccccc2)c2ccc(NC(=O)C3CCCC3)cc12` [Example 86A, (E)-3-{1-benzhydryl-5-[(cyclopentylcarbonyl)amino]-1H-indol-3-yl}-2-propenoic acid], the inhibition at 60 µM on cPLA2 (CONCENTRATION 60 micromolar, read-out: PERCENT INHIBITION @) was determined as 50%. The inhibition at 70 µM on cPLA2 (CONCENTRATION 70 micromolar, read-out: PERCENT INHIBITION @) came out at 50%. For the same compound, the inhibition at 82 µM at cPLA2 (CONCENTRATION 82 micromolar, read-out: PERCENT INHIBITION @) was 50%. In addition, at cPLA2 (CONCENTRATION 118 micromolar, read-out: PERCENT INHIBITION @), the inhibition at 118 µM amounted to 50%. Further, the inhibition in vivo at 5 mg/kg in test [1] (IV, 5 mg/Kg) came to 7.4%.

With “4-[(1-benzhydryl-5-{[(dimethylamino)sulfonyl]amino}-1H-indol-3-yl)methyl]-3- [Example 92]”, the “PERCENT INHIBITION @” value at cPLA2 (CONCENTRATION 11 micromolar), at cPLA2 (CONCENTRATION 12.5 micromolar) and on cPLA2 (CONCENTRATION 14.2 micromolar) was 50% in each case. Moreover, the “PERCENT INHIBITION” value in test [1] (PO, 2 mg/Kg) worked out at 27.36%; in test [1] (PO, 10 mg/Kg) it was 21.34%.

Consider `COc1cc(C(=O)O)ccc1Cc1cn(C(c2ccccc2)c2ccccc2)c2ccc(F)cc12` [Example 14, 4-[(1-benzhydryl-5-fluoro-1H-indol-3-yl)methyl]-3-methoxybenzoic acid], for which the inhibition at 0.7 µM at cPLA2 (CONCENTRATION 0.7 micromolar, read-out: PERCENT INHIBITION @) was 50%. Moreover, the inhibition at 0.95 µM at cPLA2 (CONCENTRATION 0.95 micromolar, read-out: PERCENT INHIBITION @) worked out at 50%. Besides, in test [1] (PO, 2 mg/Kg), the inhibition in vivo at 2 mg/kg turned out to be 11.5%. In test [1] (PO, 10 mg/Kg), the inhibition in vivo at 10 mg/kg was 8.14%.

As to `CCCn1cc(Cc2ccc(C(=O)NS(=O)(=O)c3ccccc3C)cc2OC)c2cc(NC(=O)OC3CCCC3)ccc21` [Example 2, Cyclopentyl N-{3-[2-methoxy-4-({[(2-methylphenyl)sulfonyl]amino}carbonyl)benzyl]-1-propyl-1H-indol-5-yl}carbamate], the inhibition in vivo at 5 mg/kg in test [1] (IV, 5 mg/Kg) was determined as 15.9%.

As to `COc1cc(C(=O)O)ccc1Cc1cn(CC2CC2)c2ccc(NC(=O)OC3CCCC3)cc12` [Example 5, 4-{[5-{[(cyclopentyloxy)carbonyl]aminol}-1-(cyclopropylmethyl)-1H-indol-3-yl]methyl}-3-methoxybenzoic acid], the “PERCENT INHIBITION @” value on cPLA2 (CONCENTRATION 100 micromolar) amounted to 41%; at cPLA2 (CONCENTRATION 120 micromolar) it was 50%.

For `O=C(O)c1ccc(OCCc2c(COCc3c(F)cccc3F)n(C(c3ccccc3)c3ccccc3)c3ccc(Cl)cc23)cc1` [Example 156, 4-[2-(1-benzhydryl-5-chloro-2-{[(2,6-difluorobenzyl)oxy]methyl}-1H-indol-3-yl)ethoxy]benzoic acid], the inhibition at 1 µM on cPLA2 (Conc 1 uM, read-out: % Inhibition) came out at 50%.

At cPLA2 (Conc 2.8 uM), `Cc1c(CC[S+]([O-])c2ccc(C(=O)O)cc2)c2cc(Cl)ccc2n1C(c1ccccc1)c1ccccc1` (centres unmarked) [Example 148, 4-{[2-(1-benzhydryl-5-chloro-2-methyl-1H-indol-3-yl)ethyl]sulfinyl}benzoic acid] had an inhibition at 2.8 µM of 50%.
